Where two headings read alike, the source gives them in different places.
How the values were obtained:
Format in all cases: in vivo, Mycosphaerella graminicola on wheat plants (variety Yuma)
[1] = system: Mycosphaerella graminicola; Anamorph: Septoria tritici; Bayer Code SEPTTR (standard laboratory isolate, SI SEPTTR); experiment: Type A (high volume) assay, leaf blotch of wheat, standard laboratory SEPTTR isolate (SI SEPTTR); details: standard laboratory isolate, high volume, 50 ppm, 1 Day Protectant, wheat (Yuma); for pest or weed control at 50 ppm: Zymoseptoria tritici, 24 h, read-out: Disease Control, SI SEPTTR Type A Assay (50 ppm) 1 DP
Procedure: (§1) Example A: Evaluation of Fungicidal Activity: Leaf Blotch of Wheat (Mycosphaerella graminicola; Anamorph: Septoria tritici; Bayer Code SEPTTR)
(§2) For Type A assays, technical grades of the experimental fungicides in Table 4 below were dissolved in acetone, and then mixed with nine volumes of water containing 110 ppm Triton X-100. The fungicide solutions were applied onto wheat seedlings using an automated booth sprayer. For Type B assays, emulsifiable concentrate (EC) formulations of technical grades of the experimental fungicides in Table 4 below were prepared at 10% (w/v), and then mixed with 150 volumes of 0.1% Trycol 5941. These solutions were applied onto wheat seedlings using an automated track sprayer at 200 L/ha. All sprayed plants were allowed to air dry prior to further handling.
(§3) Wheat plants (variety Yuma) were grown from seed in a greenhouse in 50% mineral soil/50% soil-less Metro mix until the first leaf was fully emerged, with 7-10 seedlings per pot. Prior to or after application of experimental fungicides, plants were inoculated either with spores of a standard laboratory SEPTTR isolate (SI SEPTTR) or with spores from a SEPTTR field isolate collected from Wellsbourne, England in 2012 (FI SEPTTR). After inoculation the plants were kept for 3 days at 20° C. in 100% relative humidity (one day in a dark dew chamber followed by two days in a lighted dew chamber). Plants were then transferred to a 20° C. greenhouse for disease development. When disease symptoms were fully expressed on untreated plants, infection levels on treated plants were assessed on a scale of 0 to 100 percent disease severity. Percent disease control was calculated using the ratio of disease severity on treated plants relative to untreated plants.

[2] = Type B (low volume, EC formulation, track sprayer 200 L/ha) assay, leaf blotch of wheat, SEPTTR field isolate (FI SEPTTR); details: Zymoseptoria tritici, 72 h, field isolate, low volume EC, 100 g/ha, wheat (Yuma)
How it was run: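 Wheat seedlings (Yuma, first leaf emerged) sprayed with acetone/Triton X-100 solutions (Type A) or 10% EC diluted in 0.1% Trycol at 200 L/ha (Type B), inoculated before or after spraying. Inoculated plants held 3 days at 20 °C, 100% RH, then greenhouse; % disease control from severity versus untreated plants.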

[3] = system: Mycosphaerella graminicola; Anamorph: Septoria tritici; Bayer Code SEPTTR (standard laboratory isolate, SI SEPTTR); experiment: Type B (low volume, EC formulation, track sprayer 200 L/ha) assay, leaf blotch of wheat, standard laboratory SEPTTR isolate (SI SEPTTR); details: Zymoseptoria tritici, 72 h, standard laboratory isolate, low volume EC, 100 g/ha, wheat (Yuma)
Procedure: as §1, §2, §3

[4] = 3 Day Curative, read-out: Disease Control, FI SEPTTR Type B Assay (100 g/ha) 3 DC
[5] = 3 Day Protectant, read-out: Disease Control, FI SEPTTR Type B Assay (100 g/ha) 3 DP
[6] = 3 Day Curative, read-out: Disease Control, SI SEPTTR Type B Assay (100 g/ha) 3 DC
[7] = 3 Day Protectant, read-out: Disease Control, SI SEPTTR Type B Assay (100 g/ha) 3 DP

Row | Compound | pest or weed control at 50 ppm [1] [%] | also measured
1 | OC(c1cncnc1)(c1ccc(-c2ccc(Cl)cc2)cn1)C1CC1 (stereo not shown) [Compound 66] | 80 to 100 | –
2 | OC(c1cncnc1)(c1ccc(Oc2ccc(C(F)(F)F)cn2)cn1)C1CC1 (stereo not shown) [Compound 67] | < 40 | –
3 | CC(C)(C)C(O)(Cc1cncnc1)c1ccc(-c2ccc(OC(F)F)cc2)cn1 (stereo not shown) [Compound 68] | 80 to 100 | –
4 | CC(C)C(O)(c1cncnc1)c1ccc(Oc2cccc(Cl)n2)cn1 (stereo not shown) [Compound 69] | 80 to 100 | –
5 | CCC(O)(c1cncnc1)c1ccc(Oc2cccc(Cl)n2)cn1 (stereo not shown) [Compound 70] | 40 to 59 | –
6 | OC(c1cncnc1)(c1ccc(Oc2cccc(Cl)n2)cn1)C1CC1 (stereo not shown) [Compound 72] | < 40 | –
7 | CC(C)C(O)(c1cncnc1)c1ccc(Oc2ccc(C(F)(F)F)cc2)cn1 (stereo not shown) [Compound 75] | – | Disease Control, SI SEPTTR Type A Assay (50 ppm) 1 DP [1]: A (80-100)
8 | CC(C)C(O)(c1cccnc1)c1ccc(Oc2ccc(Cl)cn2)cn1 (stereo not shown) [Compound 77] | 80 to 100 | –
9 | OC(c1cccnc1)(c1ccc(Oc2ccc(Cl)cn2)cn1)C1CC1 (stereo not shown) [Compound 79] | 80 to 100 | –
10 | CC(C)C(O)(c1ccc(-c2ccc(OC(F)F)cc2)cn1)c1cncs1 (stereo not shown) [Compound 85] | 80 to 100 | –
11 | CC(C)C(O)(c1ccc(-c2ccc(OC(F)(F)F)cc2)cn1)c1cncs1 (stereo not shown) [Compound 87] | 80 to 100 | –
12 | OC(c1ccc(-c2ccc(OC(F)(F)F)cc2)cn1)(c1cncs1)c1ccc(F)cc1F (stereo not shown) [Compound 94] | 60 to 79 | –
13 | CC(O)(c1cncnc1)c1ccc(-c2ccc(OC(F)(F)F)cc2)cn1 (stereo not shown) [Compound 99] | 80 to 100 | pest or weed control at 100 g/ha [2, 4]: < 40%; pest or weed control at 100 g/ha [2, 5]: 40 to 59%
14 | CN(C)c1ccc(-c2ccc(C(O)(c3cncnc3)C(C)(C)C)nc2)cc1 (stereo not shown) [Compound 100] | 80 to 100 | –
15 | CC(C)(C)C(O)(c1cncnc1)c1ccc(-c2ccc(C#N)nc2)cn1 (stereo not shown) [Compound 108] | 60 to 79 | –
16 | C=Cc1ccc(-c2ccc(C(O)(c3cncnc3)C(C)(C)C)nc2)cc1 (stereo not shown) [Compound 109] | 60 to 79 | –
17 | CC(C)(C)C(O)(c1cncnc1)c1ccc(-c2ccsc2)cn1 (stereo not shown) [Compound 110] | 80 to 100 | –
18 | CCOc1ccc(-c2ccc(C(O)(c3cncnc3)C(C)(C)C)nc2)cc1 (stereo not shown) [Compound 111] | 60 to 79 | –
19 | CC(C)(C)C(O)(c1cncnc1)c1ccc(-c2cncnc2)cn1 (stereo not shown) [Compound 113] | 60 to 79 | –
20 | CC(C)(C)C(O)(c1cncnc1)c1ccc(-c2ccoc2)cn1 (stereo not shown) [Compound 123] | 60 to 79 | –
21 | CC(C)(C)C(O)(c1cncnc1)c1ccc(-c2cccnc2)cn1 (stereo not shown) [Compound 126] | 60 to 79 | –
22 | CC(C)(C)C(O)(c1cncnc1)c1ccc(-c2cnc3ccccc3c2)cn1 (stereo not shown) [Compound 127] | 80 to 100 | –
23 | CC(C)(C)C(O)(c1cncnc1)c1ccc(-c2cnc(C(F)(F)F)cc2C(F)(F)F)cn1 (stereo not shown) [Compound 128] | 80 to 100 | –
24 | COc1ncncc1C(O)(c1ccc(-c2ccc(C(C)(C)C#N)cc2C)cn1)C(C)(C)C (stereo not shown) [Compound 129, 2-(4-(6-(1-hydroxy-1-(4-methoxypyrimidin-5-yl)-2,2-dimethylpropyl)pyridin-3-yl)-3-methylphenyl)-2-methylpropanenitrile] | 60 to 79 | –

Row | Compound | pest or weed control at 50 ppm [1] [%] | also measured
25 | OC(Cc1ccc(F)cc1)(c1cncnc1)c1ccc(-c2ccc(OC(F)(F)F)cc2)cn1 (stereo not shown) [Compound 136] | 80 to 100 | –
26 | CC(C)(C)C(O)(c1cncnc1)c1ccc(-c2ccc3c(c2)CCCO3)cn1 (stereo not shown) [Compound 137] | 80 to 100 | –
27 | OC(Cc1ccc(F)cc1F)(c1cncnc1)c1ccc(-c2ccc(OC(F)(F)F)cc2)cn1 (stereo not shown) [Compound 138] | 80 to 100 | –
28 | OC(Cc1cccc(F)c1)(c1cncnc1)c1ccc(-c2ccc(OC(F)(F)F)cc2)cn1 (stereo not shown) [Compound 139, 2-(3-fluorophenyl)-1-pyrimidin-5-yl-1-[5-[4-(trifluoromethoxy)-phenyl]-2-pyridyl]ethanol] | 80 to 100 | –
29 | OC(Cc1ccc(Cl)cc1)(c1cncnc1)c1ccc(-c2ccc(OC(F)(F)F)cc2)cn1 (stereo not shown) [Compound 140] | 80 to 100 | –
30 | OC(Cc1cccc(Cl)c1)(c1cncnc1)c1ccc(-c2ccc(OC(F)(F)F)cc2)cn1 (stereo not shown) [Compound 141] | 60 to 79 | –
31 | OC(Cc1ccc(Cl)cc1Cl)(c1cncnc1)c1ccc(-c2ccc(OC(F)(F)F)cc2)cn1 (stereo not shown) [Compound 142] | 80 to 100 | –
32 | Cc1cncc(C(O)(c2ccc(-c3ccc(OC(F)(F)F)cc3)cn2)C(C)(C)C)c1 (stereo not shown) [Compound 144] | 80 to 100 | –
33 | CC(C)(C)C(O)(c1cccnc1)c1ccc(-c2ccc(OC(F)(F)F)cc2F)cn1 (stereo not shown) [Compound 147] | 80 to 100 | –
34 | Cc1ccc(C(O)(c2ccc(-c3ccc(OC(F)(F)F)cc3)cn2)C(C)(C)C)cn1 (stereo not shown) [Compound 148] | – | pest or weed control at 100 g/ha [3, 6]: 60 to 79%; pest or weed control at 100 g/ha [3, 7]: < 40%; pest or weed control at 100 g/ha [2, 4]: 60 to 79%; pest or weed control at 100 g/ha [2, 5]: < 40%
35 | Cc1ccncc1C(O)(c1ccc(-c2ccc(OC(F)(F)F)cc2)cn1)C(C)(C)C (stereo not shown) [Compound 149] | – | pest or weed control at 100 g/ha [3, 6]: 80 to 100%; pest or weed control at 100 g/ha [3, 7]: 60 to 79%; pest or weed control at 100 g/ha [2, 4]: 80 to 100%; pest or weed control at 100 g/ha [2, 5]: 60 to 79%
36 | CC(C)(C)C(O)(c1cncnc1)c1ccc(-c2ccc(OC(F)(F)F)cn2)cn1 (stereo not shown) [Compound 150] | 80 to 100 | pest or weed control at 100 g/ha [2, 4]: 80 to 100%; pest or weed control at 100 g/ha [2, 5]: 80 to 100%
37 | CC(C)(C)C(O)(c1cncnc1)c1ccc(-c2ccc(CC#N)cc2)cn1 (stereo not shown) [Compound 153] | 80 to 100 | –
38 | CCC(C)(C)C(O)(c1cccnc1)c1ccc(-c2ccc(OC(F)(F)F)cc2)cn1 (stereo not shown) [Compound 154] | 80 to 100 | –
39 | CC(F)(F)c1ccc(-c2ccc(C(O)(c3cncnc3)C(C)(C)C)nc2)cc1 (stereo not shown) [Compound 155] | 80 to 100 | pest or weed control at 100 g/ha [2, 4]: 60 to 79%; pest or weed control at 100 g/ha [2, 5]: 60 to 79%
40 | CC(C)(C)C(O)(c1cncnc1)c1ccc(-c2ccc(C3(C(F)(F)F)CC3)cc2)cn1 (stereo not shown) [Compound 160] | 80 to 100 | pest or weed control at 100 g/ha [2, 4]: 80 to 100%; pest or weed control at 100 g/ha [2, 5]: 80 to 100%
41 | CC(C)(C)C(O)(c1cncnc1)c1ccc(-c2ccc(OC(F)(F)C(F)(F)F)cc2)cn1 (stereo not shown) [Compound 161] | 80 to 100 | pest or weed control at 100 g/ha [2, 4]: 80 to 100%; pest or weed control at 100 g/ha [2, 5]: 80 to 100%
42 | COc1ccc(-c2ccc(C(O)(c3cncnc3)C(C)(C)C)nc2)c(F)c1 (stereo not shown) [Compound 162] | 80 to 100 | pest or weed control at 100 g/ha [2, 4]: 80 to 100%; pest or weed control at 100 g/ha [2, 5]: 80 to 100%
43 | COc1ccc(-c2ccc(C(O)(c3cncnc3)C(C)(C)C)nc2)c(OC(F)(F)F)c1 (stereo not shown) [Compound 163] | 80 to 100 | pest or weed control at 100 g/ha [2, 4]: 80 to 100%; pest or weed control at 100 g/ha [2, 5]: 80 to 100%
44 | COc1ncncc1C(O)(c1ccc(-c2ccc(C(C)(C)C)cc2)cn1)C(C)(C)C (stereo not shown) [Compound 168] | 60 to 79 | –
45 | COc1ncncc1C(O)(c1ccc(-c2ccc(C#N)cc2)cn1)C(C)(C)C (stereo not shown) [Compound 170] | 80 to 100 | –
46 | COc1ccc(-c2ccc(C(O)(c3cncnc3OC)C(C)(C)C)nc2)cn1 (stereo not shown) [Compound 171] | 80 to 100 | –
47 | COc1ncncc1C(O)(c1ccc(-c2ccc(C(F)(F)F)nc2)cn1)C(C)(C)C (stereo not shown) [Compound 172] | 80 to 100 | –

— US10167300B2, “Metalloenzyme inhibitor compounds as fungicides” (priority 2014, dated 2019)
